Data: patent US7034047B2, “Triazole derivative” (Astellas Pharma, Inc., priority 2000, dated 2006)

Tests used:
[1] = test system: (+)-HA966-induced learning disability; assay: (+)-HA966-induced learning disability (mouse passive avoidance test); format: in vivo, male ddY mouse; settings: dosed intraperitoneally; step-through latency, p<0.05
From the text: 3. (+)-HA966-Induced Learning Disability (Mouse Passive Avoidance Test)
• Animal: male ddY mouse (Nippon SLC; age 7 to 9 weeks at training) was used. 16 to 32 animals were used per one group. <Experimental Procedures> Preparation of Pharmaceutical Drugs • (1) A test compound for oral administration was suspended in aqueous 0.5%methyl cellulose solution, and for intraperitoneal administration was suspended in solution dissolved 0.5% of methyl cellulose solution in saline (hereinafter referred to as 0.5% methyl cellulose solution). The administration volume was 10 ml per 1 kg·body weight. […]
• (1) On day 1 at the learning experiment, the mice were acclimated in an experimental room for one hour or longer. • (2) A test compound or the vehicle was orally or intraperitoneally given. • (3) 20 minutes thereafter, (+)-HA966 was administered at 60 μg intracerebroventriculally. • (4) 15 minutes after the dosing of (+)-HA966, the each mouse was placed in the bright room of the experimental apparatus of the passive avoidance reaction test, where the mouse was left for 30 seconds. […] A significance was determined at p<0.05.

[2] = test system: ECS-induced learning disability; assay: Electric convulsion shock (ECS)-induced learning disability (mouse passive avoidance test); format: in vivo, male ddY mouse; settings: dosed intraperitoneally; step-through latency, p<0.05
From the text: 4. Electric Convulsion Shock (ECS)—Induced Learning Disability (Mouse Passive Avoidance Test)
With reference to the previous report (Eur J Pharmacology, 321; 273–278, 1997), assessment was done as follows. • Animal: male ddY mouse (Nippon SLC; age 5 weeks at training) was used. 16 animals were used per one group. <Experimental Procedures> Preparation of Chemical Agents A test compound for oral administration was suspended in aqueous 0.5% methyl cellulose solution, and for intraperitoneal administration was suspended in solution dissolved 0.5% of methyl cellulose solution in saline The dose administered was 10 ml per 1 kg·body weight. As a placebo of the test compound, 10 ml of aqueous 0.5% methyl cellulose solution for oral administration and 10 ml of 0.5% methyl cellulose solution in saline for intraperitoneal administration (herein referred to as vehicle) was administrated. […] Test (24 Hours after the Training) • (1) The animals were left in the experimental room for one hour or longer. • (2) After the mice were placed in the bright room and left for 30 seconds, the guillotine door was opened. • (3) The time (step-through latency) required for the mice to cross the sensor of the dark room from the opening of the guillotine door was counted. […] A significance was determined at p<0.05.

CC(C)c1nnc(-c2ccc(-c3ccccc3)cc2)n1-c1ccccc1F [Production Example 1, 3-Biphenyl-4-yl-4-(2-fluorophenyl)-5-isopropyl-4H-1,2,4-triazole]
minimum effective dose [1]: 3 mg/kg | minimum effective dose [2]: 10 mg/kg
